Measured values as given in patent US20260041640A1 (INCYCLIX BIO, LLC, priority 2023, published 2026).
“And” between values parts separate entries of the source, which are not always exact repeats. Equal entries are not always repeated. Where two headings read alike, the source gives them in different places.

Assay: First-in-human clinical study: plasma and whole blood PK of INX-315 (oral QD, ASD tablet)
Type: in vivo
Description: All INX-315 tablets were taken at approximately the same time(s) each day.
Samples will also be collected pre-dose on Cycle 1 Days 2, 8, 16, and Day 22, and pre-dose on Day 1 of each subsequent cycle.
Standard non-compartmental PK parameters were estimated.
Geometric mean and geometric CV % will be included in the summary statistics.
PK parameters will be summarized descriptively by dosing cohort. AUC and Cmax values will also be presented in scatter plots. Dose proportionality will be assessed for AUC and Cmax using a power model. The 90% CI of the slope for each PK parameter will be estimated from the model and presented in a summary table.
Cohort 1 enrollment of 6 subjects dosed at 100 mg oral QD was completed in October of 2023.
Patients were upgraded to the 200 mg QD dose level and PK/PD plasma parameters were measured (FIG. 18A).
Patients were administered the 200 mg QD and 300 mg QD dose levels and PK/PD plasma parameters were measured.

[1] = plasma, 100 mg QD cohort, Day 1, individual subjects
[2] = plasma, 100 mg QD cohort, Day 1, median
[3] = plasma, 100 mg QD cohort, Day 15, individual subjects
[4] = plasma, 100 mg QD cohort, Day 15, median
[5] = plasma, 100 mg QD, Day 1, individual patients
[6] = plasma, 100 mg QD, Day 15, individual patients
[7] = plasma, 200 mg QD, Day 1, Cohort 2
[8] = plasma, 200 mg QD, Day 1, individual subjects
[9] = plasma, 200 mg QD, Day 15, Cohort 2
[10] = plasma, 200 mg QD, Day 15, individual subjects
[11] = plasma, 300 mg QD cohort, Day 1, individual subjects
[12] = plasma, 300 mg QD cohort, Day 1, median
[13] = plasma, 300 mg QD cohort, Day 15, individual subjects
[14] = whole blood, 100 mg QD, Day 1, individual patients
[15] = whole blood, 100 mg QD, Day 15, individual patients

Work on `NS(=O)(=O)c1ccc(Nc2ncc3cc4n(c3n2)C2(CCCCC2)C(=O)NN4)cc1` [INX-315] yielded a Tmax (human, plasma, po, 100 mg, plasma, 100 mg QD cohort, Day 1, median, read-out: Tmax, Median) of 4 h, a half-life (human, plasma, po, 100 mg, plasma, 100 mg QD cohort, Day 1, median, read-out: t1/2, Median (converted)) of 15.6 h and an AUC(0-t) (human, plasma, po, 100 mg, plasma, 100 mg QD cohort, Day 15, geometric mean, read-out: AUClast, Geometric Mean) of 3290 ng·h/mL. The Cmax (human, plasma, po, 100 mg, plasma, 100 mg QD cohort, Day 15, geometric mean, read-out: Cmax, Geometric Mean) was 211 ng/mL, the half-life (human, plasma, po, 100 mg, plasma, 100 mg QD cohort, Day 15, individual subjects, read-out: t1/2 (converted)) was 17.6 h and the AUC(0-t) (human, plasma, po, 100 mg, plasma, 100 mg QD cohort, Day 15, median, read-out: AUClast, Median) was 3120 ng·h/mL. For the same molecule, the Cmax (human, plasma, po, 100 mg, plasma, 100 mg QD cohort, Day 15, median, read-out: Cmax, Median) was 217 ng/mL, the Tmax (human, plasma, po, 100 mg, plasma, 100 mg QD cohort, Day 15, median, read-out: Tmax, Median) was 6 h and the half-life (human, whole blood, oral, 100 mg, preliminary data, first two patients, 100 mg QD, read-out: t1/2 (converted)) was no less than 15 h. For the same molecule, the AUC(0-t) (human, whole blood, oral, 100 mg, whole blood, 100 mg QD, Day 1, Cohort 1 (Table 28), read-out: AUClast, geometric mean) was 34700 ng·h/mL, the Cmax (human, whole blood, oral, 100 mg, whole blood, 100 mg QD, Day 1, Cohort 1 (Table 28), read-out: Cmax, geometric mean) was 2280 ng/mL and the Tmax (human, whole blood, oral, 100 mg, whole blood, 100 mg QD, Day 1, Cohort 1 (Table 28), read-out: Tmax, median) was 6 h. It also gave a half-life (human, whole blood, oral, 100 mg, whole blood, 100 mg QD, Day 1, Cohort 1 (Table 28), read-out: t1/2, geometric mean (converted)) of 17.9 h, an AUC (human, whole blood, oral, 100 mg, whole blood, 100 mg QD, Day 1 observed, mean of first two patients, read-out: AUC) of 50600 ng·h/mL and a Cmax (human, whole blood, oral, 100 mg, whole blood, 100 mg QD, Day 1 observed, mean of first two patients, read-out: Cmax) of 3000 ng/mL. It also gave an AUC(0-t) (human, whole blood, oral, 100 mg, whole blood, 100 mg QD, Day 15, Cohort 1 (Table 28), read-out: AUClast, median) of 62700 ng·h/mL, a Cmax (human, whole blood, oral, 100 mg, whole blood, 100 mg QD, Day 15, Cohort 1 (Table 28), read-out: Cmax, median) of 3580 ng/mL and a Tmax (human, whole blood, oral, 100 mg, whole blood, 100 mg QD, Day 15, Cohort 1 (Table 28), read-out: Tmax, median) of 6 h. The half-life (human, whole blood, oral, 100 mg, whole blood, 100 mg QD, Day 15, individual patients, read-out: t1/2 (converted)) was 21.6 h, the AUC (human, whole blood, oral, 100 mg, whole blood, 100 mg QD, Day 15 observed, mean of first two patients, read-out: AUC) was 116000 ng·h/mL and the Cmax (human, whole blood, oral, 100 mg, whole blood, 100 mg QD, Day 15 observed, mean of first two patients, read-out: Cmax) was 5440 ng/mL. The AUC (human, whole blood, oral, 200 mg, Cohort 2 (200 mg QD), Day 1, individual subjects, read-out: AUC Whole Blood) was 96600 ng·h/mL, the AUC (human, whole blood, oral, 300 mg, Cohort 3 (300 mg QD), Day 1, individual subjects, read-out: AUC Whole Blood) was 134000 ng·h/mL and the AUC (human, whole blood, oral, 300 mg, Cohort 3 (300 mg QD), Day 15, Tlast = 6 hours, read-out: AUC Whole Blood) was 43900 ng·h/mL. The AUC (human, whole blood, oral, 300 mg, Cohort 3 (300 mg QD), Day 15, individual subjects, read-out: AUC Whole Blood) was 86400 ng·h/mL, the “Clast, geometric mean” value (plasma, 100 mg QD cohort, Day 1, geometric mean) was 48.7 ng/mL and the AUClast [1] was 2410 ng·h/mL and 1840 ng·h/mL and 3300 ng·h/mL and 2160 ng·h/mL and 3360 ng·h/mL and 633 ng·h/mL. The Clast [1] was 42.3 ng/mL and 50.7 ng/mL and 85.2 ng/mL and 31.9 ng/mL and 114 ng/mL and 20 ng/mL, the Cmax [1] was 320 ng/mL and 109 ng/mL and 197 ng/mL and 43.8 ng/mL and the Tlast [1] was 24 h. The “Clast, median” value [2] was 46.5 ng/mL, the “Tlast, Median” value [2] was 24 h and the “Clast, geometric mean” value (plasma, 100 mg QD cohort, Day 15, geometric mean) was 90.6 ng/mL. For the same molecule, the AUClast [3] was 6840 ng·h/mL and 1930 ng·h/mL and 1640 ng·h/mL and 5700 ng·h/mL, the Clast [3] was 188 ng/mL and 65.4 ng/mL and 63.1 ng/mL and 154 ng/mL and 51.2 ng/mL and the Cmax [3] was 424 ng/mL and 96.4 ng/mL and 344 ng/mL. The Tlast [3] was 24 h, the t1/2 [3] was 16.0 h and the “Clast, median” value [4] was 65.4 ng/mL. For the same molecule, the “Tlast, Median” value [4] was 24 h, the “dose proportionality of exposure (AUC)” value (plasma, 100 mg QD versus 200 mg QD) was “dose-proportional increase in exposure (or greater)” and the “dose proportionality of exposure” value (plasma, 100 mg QD versus 200 mg QD and 300 mg QD) was “dose-proportional increase in exposure (or greater)”. The “Clast, geometric mean” value (plasma, 100 mg QD, Day 1, Cohort 1 (Table 27)) was 61.4 ng/mL, the AUClast [5] was 3410 ng·h/mL and 2160 ng·h/mL and 2510 ng·h/mL and 1990 ng·h/mL and the Clast [5] was 119 ng/mL and 86.3 ng/mL and 33.9 ng/mL and 43.9 ng/mL and 57.0 ng/mL. The Cmax [5] was 194 ng/mL and 197 ng/mL and 179 ng/mL and 326 ng/mL and 119 ng/mL, the Tlast [5] was 24 h and the t1/2 [5] was 8.88 h and 11.5 h and 16.7 h. The AUClast [6] was 5920 ng·h/mL, the Clast [6] was 199 ng/mL and 155 ng/mL and the Cmax [6] was 358 ng/mL. The Tlast [6] was 24 h, the t1/2 [6] was 15.2 h and the “Clast, geometric mean” value [7] was 223 ng/mL. The “Clast, median” value [7] was 261 ng/mL, the “Tlast, Median” value [7] was 24 h and the AUClast [8] was 7300 ng·h/mL and 11300 ng·h/mL and 19100 ng·h/mL and 4540 ng·h/mL. For the same molecule, the Clast [8] was 212 ng/mL and 291 ng/mL and 487 ng/mL and 69.7 ng/mL and 261 ng/mL, the Cmax [8] was 444 ng/mL and 800 ng/mL and 1140 ng/mL and 305 ng/mL and the Tlast [8] was 24 h. The “Clast, geometric mean” value [9] was 263 ng/mL, the “Clast, median” value [9] was 320 ng/mL and the “Tlast, Median” value [9] was 24 h. The AUClast [10] was 6560 ng·h/mL and 14300 ng·h/mL and 18100 ng·h/mL and 13200 ng·h/mL, the Clast [10] was 88.8 ng/mL and 324 ng/mL and 521 ng/mL and 317 ng/mL and the Cmax [10] was 1230 ng/mL and 997 ng/mL and 758 ng/mL. For the same molecule, the Tlast [10] was 24 h, the t1/2 [10] was 10.5 h and 14.3 h and the “Clast, geometric mean” value (plasma, 300 mg QD cohort, Day 1, geometric mean) was 213 ng/mL. The AUClast [11] was 7590 ng·h/mL and 11000 ng·h/mL and 8080 ng·h/mL and 11500 ng·h/mL, the Clast [11] was 148 ng/mL and 135 ng/mL and 303 ng/mL and 219 ng/mL and 331 ng/mL and the Cmax [11] was 550 ng/mL and 490 ng/mL and 812 ng/mL. The Tlast [11] was 24 h, the t1/2 [11] was 16.2 h and the “Clast, median” value [12] was 219 ng/mL. For the same molecule, the “Tlast, Median” value [12] was 24 h, the AUClast [13] was 4430 ng·h/mL and the Clast [13] was 96.8 ng/mL and 359 ng/mL. For the same molecule, the Cmax [13] was 840 ng/mL, the Tlast [13] was 24 h and 8 h and the Tmax [13] was 0.5 h. For the same molecule, the t1/2 [13] was 5.80 h, the “factor by which observed AUC exceeded the model” value (whole blood, 100 mg QD, Day 1) was 9 × and the “Clast, geometric mean” value (whole blood, 100 mg QD, Day 1, Cohort 1 (Table 28)) was 956 ng/mL. The AUClast [14] was 60500 ng·h/mL and 40600 ng·h/mL and 37800 ng·h/mL and 32500 ng·h/mL and 13400 ng·h/mL and 43600 ng·h/mL, the Clast [14] was 1840 ng/mL and 1020 ng/mL and 1180 ng/mL and 719 ng/mL and 502 ng/mL and 954 ng/mL and the Cmax [14] was 3430 ng/mL and 2570 ng/mL and 2110 ng/mL and 2710 ng/mL and 805 ng/mL and 3470 ng/mL. The Tlast [14] was 24 h, the t1/2 [14] was 22.4 h and 13.9 h and 20.5 h and 14.5 h and 27.4 h and 12.8 h and the Cmin (whole blood, 100 mg QD, Day 1 observed, mean of first two patients) was 1430 ng/mL. The “Clast, median” value (whole blood, 100 mg QD, Day 15, Cohort 1 (Table 28)) was 1670 ng/mL, the AUClast [15] was 117000 ng·h/mL and 31400 ng·h/mL and the Clast [15] was 3220 ng/mL and 1670 ng/mL and 891 ng/mL. For the same molecule, the Cmax [15] was 7290 ng/mL and 1820 ng/mL, the Tlast [15] was 24 h and the t1/2 [15] was 18.3 h. For the same molecule, the Cmin (whole blood, 100 mg QD, Day 15 observed, mean of first two patients) was 2445 ng/mL, the “Total Area” value (whole blood, 100 mg QD, d 1, Patients 1 and 2) was 60740 and 41732 and the “Total Area” value (whole blood, 100 mg QD, d 15, Patients 1 and 2) was 118285 and 65180.
